How the values were obtained:
14 human cell lines = assay: compounds tested against 14 human cell lines (in vitro); format: cell-based
Excerpt: What is interesting from these in vitro data is that the activity of these esters is related to the substituents on their side aromatic rings. […] Thus, the difference in activity among the esters of the present invention are due to the different substituents on their side aromatic ring.

[1] = cited from earlier work
[2] = animal models; cited from earlier work
[3] = cited from earlier work; remark: listed apart in the source
[4] = cited from earlier work; remark: listed apart in the source
mouse leukemia L 1210 = conditions: initial test; cited from earlier work
[5] = patients, early trials; cited from earlier work

In the case of 20-O-phenyl-9-nitrocamptothecin [CZ176], the “activity (response of 14 human cell lines)” value (14 human cell lines) is reported as “do not show any activity”.

In the case of CC[C@@](O)(C(=O)[O-])c1cc2n(c(=O)c1CO)Cc1cc3ccccc3nc1-2.[Na+] [CPT sodium carboxylate], the solubility in water [1] is given as “water-soluble” and the “potency relative to the parent camptothecin” value [2] is given as 10-20%.

For CC[C@@]1(O)C(=O)OCc2c1cc1n(c2=O)Cc2cc3c([N+](=O)[O-])cccc3nc2-1 [9-nitrocamptothecin], the “present as lactone form in mice plasma” value [3] is listed as “about 50%” and the “found as the lactone form in human plasma” value [4] is listed as 5%.

For CC[C@@]1(O)C(=O)OCc2c1cc1n(c2=O)Cc2cc3ccccc3nc2-1 [Camptothecin], the “activity against mouse leukemia L 1210” value (mouse leukemia L 1210) is listed as “showed good activity”, the “anticancer activity in human clinical trials” value [5] is listed as “anticancer activity was not found” and the “toxicity in human clinical trials” value [5] is listed as “severe toxicity was observed”.

For CC[C@@]1(OC(=O)c2ccccc2)C(=O)OCc2c1cc1n(c2=O)Cc2cc3ccccc3nc2-1 [CZ222], the “activity (response of 14 human cell lines)” value (14 human cell lines) was “do not show any activity”.

Source: patent publication US6407239B1, “Aromatic esters of camptothecins and methods to treat cancers” (priority 1999, dated 2002)
